Source: the supplement of paper PMC10307832

Experiments:
Experiment in all cases: relative viability (nuclei count vs DMSO), 5 days (fraction); higher = more cells survive
NCI-H647 = test system: NCI-H647
Outline: (§1)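 Cells from lung cancer lines were seeded into 1536-well plates and, one day later, dosed by pin tool. Treatments were either a single drug or a fixed dose of an anchor drug with five library-drug doses (not always all listed) in √10 steps. After 5 days, nuclei were stained in a one-step fixation (final 0.05% Triton X-100, 1% formaldehyde, 1 ug/ml Hoechst) and counted on 4× images, and relative viability is the treated-to-vehicle nuclei ratio, as the median of duplicate plates.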

EKVX = test system: EKVX
Outline: as §1

HARA = test system: HARA
Outline: as §1

SK-MES-1 = test system: SK-MES-1
Outline: as §1

NCI-H2087 = test system: NCI-H2087
Outline: as §1

NCI-H1792 = test system: NCI-H1792
Outline: as §1

LC-2-ad = test system: LC-2-ad
Outline: as §1

NCI-H1395 = test system: NCI-H1395
Outline: as §1

NCI-H1734 = test system: NCI-H1734
Outline: as §1

NCI-H2342 = test system: NCI-H2342
Outline: as §1

NCI-H2170 = test system: NCI-H2170
Outline: as §1

SK-LU-1 = test system: SK-LU-1
Outline: as §1

BEN = test system: BEN
Outline: as §1

NCI-H2405 = test system: NCI-H2405
Outline: as §1

NCI-H1437 = test system: NCI-H1437
Outline: as §1

NCI-H661 = test system: NCI-H661
Outline: as §1

HCC-366 = test system: HCC-366
Outline: as §1

NCI-H596 = test system: NCI-H596
Outline: as §1

NCI-H2228 = test system: NCI-H2228
Outline: as §1

NCI-H1355 = test system: NCI-H1355
Outline: as §1

NCI-H2009 = test system: NCI-H2009
Outline: as §1

HCC-827 = test system: HCC-827
Outline: as §1

LOU-NH91 = test system: LOU-NH91
Outline: as §1

Structure (SMILES): CC1(C)CCC(c2ccc(Cl)cc2)=C(CN2CCN(c3ccc(C(=O)NS(=O)(=O)c4ccc(N[C@H](CCN5CCOCC5)CSc5ccccc5)c(S(=O)(=O)C(F)(F)F)c4)cc3)CC2)C1 [Navitoclax] + Cc1nc(Nc2ncc(C(=O)Nc3c(C)cccc3Cl)s2)cc(N2CCN(CCO)CC2)n1 [Dasatinib] (partner 0.075 µM)
- relative viability (NCI-H647; first compound 0.005 µM): 0.15
- relative viability (NCI-H647; first compound 0.01581 µM): 0.192
- relative viability (NCI-H647; first compound 0.05 µM): 0.173
- relative viability (NCI-H647; first compound 0.1581 µM): 0.17
- relative viability (NCI-H647; first compound 0.5 µM): 0.315
- relative viability (EKVX; first compound 0.005 µM): 0.607
- relative viability (EKVX; first compound 0.01581 µM): 0.583
- relative viability (EKVX; first compound 0.05 µM): 0.512
- relative viability (EKVX; first compound 0.1581 µM): 0.692
- relative viability (EKVX; first compound 0.5 µM): 0.598
- relative viability (HARA; first compound 0.005 µM): 0.308
- relative viability (HARA; first compound 0.01581 µM): 0.277
- relative viability (HARA; first compound 0.1581 µM): 0.29
- relative viability (HARA; first compound 0.5 µM): 0.242
- relative viability (SK-MES-1; first compound 0.005 µM): 0.324
- relative viability (SK-MES-1; first compound 0.01581 µM): 0.466
- relative viability (SK-MES-1; first compound 0.05 µM): 0.395
- relative viability (SK-MES-1; first compound 0.1581 µM): 0.393
- relative viability (SK-MES-1; first compound 0.5 µM): 0.43
- relative viability (NCI-H2087; first compound 0.005 µM): 0.901
- relative viability (NCI-H2087; first compound 0.01581 µM): 0.88
- relative viability (NCI-H2087; first compound 0.1581 µM): 0.887
- relative viability (NCI-H2087; first compound 0.5 µM): 0.793
- relative viability (NCI-H1792; first compound 0.005 µM): 0.717
- relative viability (NCI-H1792; first compound 0.01581 µM): 0.914
- relative viability (NCI-H1792; first compound 0.05 µM): 0.64
- relative viability (NCI-H1792; first compound 0.1581 µM): 0.782
- relative viability (NCI-H1792; first compound 0.5 µM): 0.79
- relative viability (LC-2-ad; first compound 0.005 µM): 0.442
- relative viability (LC-2-ad; first compound 0.01581 µM): 0.812
- relative viability (LC-2-ad; first compound 0.05 µM): 0.691
- relative viability (LC-2-ad; first compound 0.1581 µM): 0.406
- relative viability (LC-2-ad; first compound 0.5 µM): 0.342
- relative viability (NCI-H1395; first compound 0.005 µM): 0.404
- relative viability (NCI-H1395; first compound 0.01581 µM): 0.42
- relative viability (NCI-H1395; first compound 0.05 µM): 0.378
- relative viability (NCI-H1395; first compound 0.1581 µM): 0.387
- relative viability (NCI-H1395; first compound 0.5 µM): 0.483
- relative viability (NCI-H1734; first compound 0.005 µM): 0.41
- relative viability (NCI-H1734; first compound 0.01581 µM): 0.544
- relative viability (NCI-H1734; first compound 0.1581 µM): 0.425
- relative viability (NCI-H1734; first compound 0.5 µM): 0.554
- relative viability (NCI-H2342; first compound 0.005 µM): 0.32
- relative viability (NCI-H2342; first compound 0.01581 µM): 0.309
- relative viability (NCI-H2342; first compound 0.05 µM): 0.27
- relative viability (NCI-H2342; first compound 0.1581 µM): 0.278
- relative viability (NCI-H2342; first compound 0.5 µM): 0.31
- relative viability (NCI-H2170; first compound 0.005 µM): 0.557
- relative viability (NCI-H2170; first compound 0.01581 µM): 0.528
- relative viability (NCI-H2170; first compound 0.05 µM): 0.397
- relative viability (NCI-H2170; first compound 0.1581 µM): 0.595
- relative viability (NCI-H2170; first compound 0.5 µM): 0.574
- relative viability (SK-LU-1; first compound 0.005 µM): 0.182
- relative viability (SK-LU-1; first compound 0.01581 µM): 0.169
- relative viability (SK-LU-1; first compound 0.05 µM): 0.193
- relative viability (SK-LU-1; first compound 0.1581 µM): 0.203
- relative viability (SK-LU-1; first compound 0.5 µM): 0.0932
- relative viability (BEN; first compound 0.005 µM): 0.301
- relative viability (BEN; first compound 0.01581 µM): 0.312
- relative viability (BEN; first compound 0.05 µM): 0.333
- relative viability (BEN; first compound 0.1581 µM): 0.297
- relative viability (BEN; first compound 0.5 µM): 0.0643
- relative viability (NCI-H2405; first compound 0.005 µM): 0.189
- relative viability (NCI-H2405; first compound 0.01581 µM): 0.209
- relative viability (NCI-H2405; first compound 0.05 µM): 0.146
- relative viability (NCI-H2405; first compound 0.1581 µM): 0.196
- relative viability (NCI-H2405; first compound 0.5 µM): 0.132
- relative viability (NCI-H1437; first compound 0.005 µM): 0.377
- relative viability (NCI-H1437; first compound 0.01581 µM): 0.513
- relative viability (NCI-H1437; first compound 0.05 µM): 0.287
- relative viability (NCI-H1437; first compound 0.1581 µM): 0.394
- relative viability (NCI-H1437; first compound 0.5 µM): 0.41
- relative viability (NCI-H661; first compound 0.005 µM): 0.621
- relative viability (NCI-H661; first compound 0.01581 µM): 1.11
- relative viability (NCI-H661; first compound 0.05 µM): 0.901
- relative viability (NCI-H661; first compound 0.1581 µM): 0.933
- relative viability (NCI-H661; first compound 0.5 µM): 0.926
- relative viability (HCC-366; first compound 0.005 µM): 0.587
- relative viability (HCC-366; first compound 0.01581 µM): 0.689
- relative viability (HCC-366; first compound 0.1581 µM): 0.709
- relative viability (HCC-366; first compound 0.5 µM): 0.646
- relative viability (NCI-H596; first compound 0.005 µM): 0.734
- relative viability (NCI-H596; first compound 0.01581 µM): 0.68
- relative viability (NCI-H596; first compound 0.1581 µM): 0.603
- relative viability (NCI-H596; first compound 0.5 µM): 0.438
- relative viability (NCI-H2228; first compound 0.005 µM): 0.519
- relative viability (NCI-H2228; first compound 0.01581 µM): 0.525
- relative viability (NCI-H2228; first compound 0.1581 µM): 0.592
- relative viability (NCI-H2228; first compound 0.5 µM): 0.517
- relative viability (NCI-H1355; first compound 0.005 µM): 0.765
- relative viability (NCI-H1355; first compound 0.01581 µM): 0.796
- relative viability (NCI-H1355; first compound 0.05 µM): 0.753
- relative viability (NCI-H1355; first compound 0.1581 µM): 0.699
- relative viability (NCI-H1355; first compound 0.5 µM): 0.729
- relative viability (NCI-H2009; first compound 0.005 µM): 0.232
- relative viability (NCI-H2009; first compound 0.01581 µM): 0.383
- relative viability (NCI-H2009; first compound 0.05 µM): 0.264
- relative viability (NCI-H2009; first compound 0.1581 µM): 0.336
- relative viability (NCI-H2009; first compound 0.5 µM): 0.319
- relative viability (HCC-827; first compound 0.005 µM): 0.388
- relative viability (HCC-827; first compound 0.01581 µM): 0.387
- relative viability (HCC-827; first compound 0.05 µM): 0.297
- relative viability (HCC-827; first compound 0.1581 µM): 0.271
- relative viability (HCC-827; first compound 0.5 µM): 0.359
- relative viability (LOU-NH91; first compound 0.005 µM): 0.522
- relative viability (LOU-NH91; first compound 0.01581 µM): 0.566
- relative viability (LOU-NH91; first compound 0.05 µM): 0.454
- relative viability (LOU-NH91; first compound 0.1581 µM): 0.5
- relative viability (LOU-NH91; first compound 0.5 µM): 0.377
